Results taken from ChEMBL document CHEMBL4376854, “Investigation of the Adrenergic and Opioid Binding Affinities, Metabolic Stability, Plasma Protein Binding Properties, and Functional Effects of Selected Indole-Based Kratom Alkaloids” (J Med Chem, 2020).
Calls of active or inactive are those of the source. No cut-off for these calls is given here.

Assays:
[1] = target: T1, Alpha-2A adrenergic receptor (Homo sapiens) (UniProt P08913); details: CHO, 100 nM
T1 sequence (whole entry): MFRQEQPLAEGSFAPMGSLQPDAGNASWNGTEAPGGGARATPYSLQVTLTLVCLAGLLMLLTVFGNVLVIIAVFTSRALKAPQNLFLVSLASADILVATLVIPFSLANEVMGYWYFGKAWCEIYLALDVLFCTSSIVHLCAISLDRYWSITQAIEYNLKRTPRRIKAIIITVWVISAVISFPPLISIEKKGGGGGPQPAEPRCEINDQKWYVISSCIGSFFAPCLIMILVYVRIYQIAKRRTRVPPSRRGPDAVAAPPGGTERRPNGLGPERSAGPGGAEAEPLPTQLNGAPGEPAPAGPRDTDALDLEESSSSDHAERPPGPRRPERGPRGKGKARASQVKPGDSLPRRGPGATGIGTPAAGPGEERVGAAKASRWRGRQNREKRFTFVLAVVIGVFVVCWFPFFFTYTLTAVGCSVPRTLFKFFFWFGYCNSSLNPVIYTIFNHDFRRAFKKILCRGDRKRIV

[2] = target: T2, Alpha-1D adrenergic receptor (Homo sapiens) (UniProt P25100); details: CHO, 10000 nM
T2 sequence (whole entry): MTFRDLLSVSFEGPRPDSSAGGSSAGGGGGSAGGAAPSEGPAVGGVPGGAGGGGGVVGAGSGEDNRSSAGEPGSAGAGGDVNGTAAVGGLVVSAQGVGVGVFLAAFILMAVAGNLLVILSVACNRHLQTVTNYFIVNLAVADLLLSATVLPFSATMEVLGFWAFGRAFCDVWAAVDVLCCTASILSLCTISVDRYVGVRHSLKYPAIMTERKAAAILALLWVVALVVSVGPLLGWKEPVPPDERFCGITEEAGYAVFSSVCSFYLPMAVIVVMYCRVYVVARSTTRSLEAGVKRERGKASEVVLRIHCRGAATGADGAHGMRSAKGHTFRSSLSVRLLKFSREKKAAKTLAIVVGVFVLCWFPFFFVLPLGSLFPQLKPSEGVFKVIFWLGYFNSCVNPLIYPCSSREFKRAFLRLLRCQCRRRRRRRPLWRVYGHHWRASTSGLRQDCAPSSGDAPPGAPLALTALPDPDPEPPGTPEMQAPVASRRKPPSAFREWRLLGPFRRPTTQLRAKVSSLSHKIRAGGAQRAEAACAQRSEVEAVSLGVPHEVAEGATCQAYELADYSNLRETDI

[3] = target: Kappa-type opioid receptor (Homo sapiens, UniProt P41145); details: 100 nM
Sequence of Kappa-type opioid receptor (P41145 whole entry): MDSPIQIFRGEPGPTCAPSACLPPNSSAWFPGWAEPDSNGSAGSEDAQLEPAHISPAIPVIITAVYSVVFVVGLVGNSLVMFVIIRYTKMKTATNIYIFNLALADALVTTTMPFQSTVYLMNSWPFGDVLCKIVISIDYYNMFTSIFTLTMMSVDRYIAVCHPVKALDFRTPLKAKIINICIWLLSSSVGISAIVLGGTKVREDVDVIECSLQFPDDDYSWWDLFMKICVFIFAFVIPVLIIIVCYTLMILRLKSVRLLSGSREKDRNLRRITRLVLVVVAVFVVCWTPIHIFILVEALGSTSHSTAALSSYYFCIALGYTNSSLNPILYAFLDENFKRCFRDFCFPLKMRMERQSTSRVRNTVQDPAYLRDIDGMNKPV

[4] = target: Delta-type opioid receptor (Homo sapiens, UniProt P41143); experiment: Displacement of [3H]DADLE from human recombinant delta opioid receptor expressed in rat Chem-1 (RBL) cell membranes at 10000 nM incubated for 60 mins relative to control
Sequence of Delta-type opioid receptor (P41143 whole entry): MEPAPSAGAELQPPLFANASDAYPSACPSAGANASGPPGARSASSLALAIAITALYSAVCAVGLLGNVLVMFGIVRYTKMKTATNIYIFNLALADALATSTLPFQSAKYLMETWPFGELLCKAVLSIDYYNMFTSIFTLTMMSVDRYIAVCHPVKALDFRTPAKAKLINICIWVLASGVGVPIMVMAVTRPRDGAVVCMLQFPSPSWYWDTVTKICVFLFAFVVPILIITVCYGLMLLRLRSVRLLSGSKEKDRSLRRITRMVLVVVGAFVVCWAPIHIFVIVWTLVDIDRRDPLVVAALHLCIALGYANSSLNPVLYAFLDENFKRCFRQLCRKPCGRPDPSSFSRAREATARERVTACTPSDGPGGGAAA

[5] = Toxicity in Sprague-Dawley rat assessed as induction of hypothermia at 0.0032 to 10 mg/kg, iv; type: organism-based; details: in vivo
Rattus norvegicus = experiment: Antinociceptive activity in Sprague-Dawley rat dosed intravenously using cumulative dosing every 5 mins until rat maxed-out on hot plate co-treated with 0.1 mg/kg naltrexone by hot plate test; type: functional, organism-based
[6] = target: T3, Alpha-2B adrenergic receptor (Homo sapiens) (UniProt P18089); details: CHO, 10000 nM
T3 sequence (whole entry): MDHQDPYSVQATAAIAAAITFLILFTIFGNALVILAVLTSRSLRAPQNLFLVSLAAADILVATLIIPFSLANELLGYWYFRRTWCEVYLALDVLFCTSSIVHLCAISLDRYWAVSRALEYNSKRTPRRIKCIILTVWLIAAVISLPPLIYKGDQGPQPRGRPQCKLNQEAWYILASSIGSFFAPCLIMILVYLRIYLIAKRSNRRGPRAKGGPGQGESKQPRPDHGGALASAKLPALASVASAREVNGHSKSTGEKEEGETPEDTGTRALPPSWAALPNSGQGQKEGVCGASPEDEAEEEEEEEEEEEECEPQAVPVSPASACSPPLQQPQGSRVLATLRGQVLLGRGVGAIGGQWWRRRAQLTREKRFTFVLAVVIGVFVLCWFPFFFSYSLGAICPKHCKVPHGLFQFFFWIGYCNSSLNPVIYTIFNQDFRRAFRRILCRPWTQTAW

[7] = target: T2, Alpha-1D adrenergic receptor (Homo sapiens); details: CHO, 100 nM
[8] = target: T4, Alpha-1B adrenergic receptor (Homo sapiens) (UniProt P35368); details: CHO, 10000 nM
T4 sequence (whole entry): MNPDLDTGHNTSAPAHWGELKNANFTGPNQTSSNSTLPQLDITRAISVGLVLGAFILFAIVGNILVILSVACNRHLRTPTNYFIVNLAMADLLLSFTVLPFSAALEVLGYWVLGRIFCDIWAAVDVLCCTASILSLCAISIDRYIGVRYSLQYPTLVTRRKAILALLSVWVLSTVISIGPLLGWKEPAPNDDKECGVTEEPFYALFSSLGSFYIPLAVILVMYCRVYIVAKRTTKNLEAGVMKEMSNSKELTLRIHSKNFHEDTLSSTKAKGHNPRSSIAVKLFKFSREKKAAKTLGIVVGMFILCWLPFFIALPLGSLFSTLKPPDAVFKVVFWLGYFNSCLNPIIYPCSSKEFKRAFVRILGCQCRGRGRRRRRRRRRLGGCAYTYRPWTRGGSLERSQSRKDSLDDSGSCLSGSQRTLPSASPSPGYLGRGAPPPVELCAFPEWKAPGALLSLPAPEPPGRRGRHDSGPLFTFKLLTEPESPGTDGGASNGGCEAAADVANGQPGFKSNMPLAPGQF

Mu-type opioid receptor = Mu-type opioid receptor (Homo sapiens, UniProt P35372); details: HEK293, 10000 nM
Sequence of Mu-type opioid receptor (P35372 whole entry): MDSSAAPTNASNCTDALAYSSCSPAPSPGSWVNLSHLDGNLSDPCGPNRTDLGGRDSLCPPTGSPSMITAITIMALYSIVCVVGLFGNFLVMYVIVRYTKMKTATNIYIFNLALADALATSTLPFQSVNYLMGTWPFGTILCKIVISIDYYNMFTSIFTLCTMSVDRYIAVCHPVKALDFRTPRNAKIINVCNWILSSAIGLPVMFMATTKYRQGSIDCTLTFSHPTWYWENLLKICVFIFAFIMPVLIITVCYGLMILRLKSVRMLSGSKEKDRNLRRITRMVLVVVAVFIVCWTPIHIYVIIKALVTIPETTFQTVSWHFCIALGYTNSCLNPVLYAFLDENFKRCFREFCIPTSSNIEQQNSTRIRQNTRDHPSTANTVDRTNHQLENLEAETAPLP

[9] = human, plasma, 1 µM

SMILES	inhibition [1]	inhibition [2]	inhibition [3]	inhibition [4]	Activity [5]	Activity (Rattus norvegicus)	inhibition [6]	inhibition [7]	inhibition [8]	inhibition (Mu-type opioid receptor)	Fu [9]
CC[C@@H]1CN2CCc3c([nH]c4cccc(OC)c34)[C@@H]2C[C@@H]1/C(=C\OC)C(=O)OC	-8%	57.9%	25.2%	18.3%	Non-Toxic	inactive	25.1%	-2.1%	40.3%	93.7%	0.02
CC[C@@H]1CN2CCc3c([nH]c4cccc(OC)c34)[C@H]2C[C@@H]1/C(=C\OC)C(=O)OC	7%	70.5%	61.9%	69.2%	Toxic	inactive	67.2%	6.3%	95.6%	98%	0.01
